Reference: patent US20250199004A1, “METHODS OF EVALUATING TREATMENT OUTCOME IN HIGH GRADE SEROUS OVARIAN CANCER” (THE REGENTS OF THE UNIVERSITY OF COLORADO, A BODY CORPORATE, priority 2018, published 2025)
Where two headings read alike, the source gives them in different places.

Tests used:
[1] = system: OVCAR8 cells; experiment: Cisplatin dose-response, cell viability by MTT assay; assay type: cell-based, human; details: 24 hours
Description: A majority of HGSOC patients treated with platinum-based (i.e., carboplatin) chemotherapy develop chemoresistance. […] To test this hypothesis, CBX2 knockdown OVCAR4, PEO1, and OVCAR8 cells were grown in an adherent setting for 24 h and subsequently treated with increasing doses of cisplatin. […] The panels in FIG. 7A and FIG. 7B are as follows. Panel A: shControl (shCtrl), shCBX2 #1 and #2 OVCAR8 cells grown in adherent were dosed with cisplatin for 24 hours. Treated cells were utilized for a MTT assay to assess cell viability. Panel B: Same as A, but adherent PEO1 cells were dosed with cisplatin for 48 hours. Panel C: Same as A, but OVCAR8 cells in suspension were dosed with cisplatin for 24 hours. Panel D: Same as A, but PEO1 cells in suspension were dosed with cisplatin for 48 hours. IC50 values were calculated with Prism and are indicated.

[2] = system: OVCAR4 cells; experiment: Annexin V/PI apoptosis assay; assay type: cell-based, human; details: OVCAR4 adherent, loss of CBX2 (shCBX2 #1 or #2) vs shControl, cisplatin 10 μM
Description: (§1) Panels of FIG. 6 are as follows. Panel A: OVCAR4 shControl, shCBX2 #1, and shCBX2 #2 in 96-well plates treated over 24 h with increasing dose of cisplatin (0.5-100 μM). Percent cell viability was measured using the MTT assay and the half maximal inhibitory concentration (IC50) calculated. Panel B: Similarly to (Panel A), OVCAR4 knockdown cell lines were grown in low adherent 96-well plates (forced suspension) and treated with increasing doses of cisplatin over 24 h and percent cell viability measured with MTT for calculation of IC50. Panel C: Annexin/V apoptosis assay of OVCAR4 cells grown in adherent setting with shControl, shCBX2 #1 or #2 treated with cisplatin (10 μM) compared to untreated control. Percent Annexin positive cells are shown. Statistical test=ANOVA. Error bars=S.E.M.
Following 72 h of growth in adherent and suspended states, OVCAR4 and PEO1 cells were harvested and washed in PBS. Alexa Fluor™ 488 Conjugated AnnexinV and Propidium Iodide (PI) (Thermo Fisher Scientific) staining were performed following manufacturer's protocol.

[3] = system: OVCAR4 cells; details: cells allowed to recover 72 h following cisplatin treatment; read-out: OVCAR4 cisplatin IC50 reported by Haley et al.; cited from earlier work
[4] = system: PEO1 cells; experiment: Cisplatin dose-response, cell viability by MTT assay; assay type: cell-based, human; details: 48 hours
Description: (§2) A majority of HGSOC patients treated with platinum-based (i.e., carboplatin) chemotherapy develop chemoresistance. […] To test this hypothesis, CBX2 knockdown OVCAR4, PEO1, and OVCAR8 cells were grown in an adherent setting for 24 h and subsequently treated with increasing doses of cisplatin.
The panels in FIG. 7A and FIG. 7B are as follows. Panel A: shControl (shCtrl), shCBX2 #1 and #2 OVCAR8 cells grown in adherent were dosed with cisplatin for 24 hours. Treated cells were utilized for a MTT assay to assess cell viability. Panel B: Same as A, but adherent PEO1 cells were dosed with cisplatin for 48 hours. Panel C: Same as A, but OVCAR8 cells in suspension were dosed with cisplatin for 24 hours. Panel D: Same as A, but PEO1 cells in suspension were dosed with cisplatin for 48 hours. IC50 values were calculated with Prism and are indicated.
PEO1 and OVCAR4 cells were plated in 96-well plates in both adherent (4000 cells per well) and suspension (6000 cells per well) environments, as described above. These cells were treated over 24 h with increasing concentrations of Cisplatin (0.5-100 μM). 1640 RPMI media and media with 0.9% NaCl were used for control and vehicle control, respectively. Cell viability was assessed using the 3-(4,5-dimethylthiazol-2-yl)-5-(3-carboxymethoxyphenyl)-2-(4-sulfophenyl)-2H-tetrazolium (MTT) assay (Promega, Madison, WI). […]

[5] = system: OVCAR4 cells; experiment: as above; assay type: cell-based, human; details: for IC50: 24 h, MTT
Description: as §2
CBX2 knockdown OVCAR4, PEO1, and OVCAR8 cells were grown in suspension and dosed with cisplatin. […] Although not as robust as OVCAR4 cells, CBX2knockdown also sensitized OVCAR8 and PEO1 cells to cisplatin (FIG. 7B Panels C-D). […] In addition, we further confirmed that in OVCAR4, loss of CBX2 lead to increased cisplatin-induced apoptosis measured with Annexin V/PI (FIG. 6 Panel C).
as §1
PEO1 and OVCAR4 cells were plated in 96-well plates in both adherent (4000 cells per well) and suspension (6000 cells per well) environments, as described above. These cells were treated over 24 h with increasing concentrations of Cisplatin (0.5-100 μM). 1640 RPMI media and media with 0.9% NaCl were used for control and vehicle control, respectively. Cell viability was assessed using the 3-(4,5-dimethylthiazol-2-yl)-5-(3-carboxymethoxyphenyl)-2-(4-sulfophenyl)-2H-tetrazolium (MTT) assay (Promega, Madison, WI). Means of at least five wells are reported and experiments were independently repeated in triplicate. Representative dose-response curves are shown.

N.N.[Cl][Pt][Cl] [cisplatin]
chemosensitivity to cisplatin, shCBX2 cell lines vs shControl cells ([1]; OVCAR8, adherent): significantly more chemosensitive
sensitivity to cisplatin after CBX2 knockdown ([1]; OVCAR8, suspension): sensitized
cisplatin-induced apoptosis measured with Annexin V/PI [2]: increased
IC50 [3]: ~6 µM
chemosensitivity to cisplatin, shCBX2 cell lines vs shControl cells ([4]; PEO1, adherent): significantly more chemosensitive
sensitivity to cisplatin after CBX2 knockdown ([4]; PEO1, suspension): sensitized
chemosensitivity to cisplatin, shCBX2 cell lines vs shControl cells ([5]; OVCAR4, adherent): significantly more chemosensitive
increase in the cisplatin IC50 in suspension cells compared to the adherent cells ([5]; OVCAR4 cells): 4.47 fold
IC50 ([5]; OVCAR4 control with intact CBX2, adherent): 38.7 µM
IC50 ([5]; OVCAR4 control with intact CBX2, suspension): 170 µM
IC50 ([5]; OVCAR4 shCBX2 #1 knockdown cells, adherent): 12.7 µM
IC50 ([5]; OVCAR4 shCBX2 #1 knockdown cells, suspension): 7.19 µM
IC50 ([5]; OVCAR4 shCBX2 #2 knockdown cells, adherent): 15.4 µM
IC50 ([5]; OVCAR4 shCBX2 #2 knockdown cells, suspension): 18.1 µM
